ChEMBL document CHEMBL1130301, “Constrained -alanine based GpIIb/IIIa antagonists” (Bioorg Med Chem Lett, 1997)
Where a SMILES comes first, the peptide text is derived from it.

Target: Integrin alpha-IIb/beta-3 (Homo sapiens, UniProt P05106+P08514)
Assay: Inhibition of fibrinogen binding to activated human platelets
Assay type: functional

Sequence of Integrin alpha-IIb/beta-3 (P05106 27-788 limits assumed): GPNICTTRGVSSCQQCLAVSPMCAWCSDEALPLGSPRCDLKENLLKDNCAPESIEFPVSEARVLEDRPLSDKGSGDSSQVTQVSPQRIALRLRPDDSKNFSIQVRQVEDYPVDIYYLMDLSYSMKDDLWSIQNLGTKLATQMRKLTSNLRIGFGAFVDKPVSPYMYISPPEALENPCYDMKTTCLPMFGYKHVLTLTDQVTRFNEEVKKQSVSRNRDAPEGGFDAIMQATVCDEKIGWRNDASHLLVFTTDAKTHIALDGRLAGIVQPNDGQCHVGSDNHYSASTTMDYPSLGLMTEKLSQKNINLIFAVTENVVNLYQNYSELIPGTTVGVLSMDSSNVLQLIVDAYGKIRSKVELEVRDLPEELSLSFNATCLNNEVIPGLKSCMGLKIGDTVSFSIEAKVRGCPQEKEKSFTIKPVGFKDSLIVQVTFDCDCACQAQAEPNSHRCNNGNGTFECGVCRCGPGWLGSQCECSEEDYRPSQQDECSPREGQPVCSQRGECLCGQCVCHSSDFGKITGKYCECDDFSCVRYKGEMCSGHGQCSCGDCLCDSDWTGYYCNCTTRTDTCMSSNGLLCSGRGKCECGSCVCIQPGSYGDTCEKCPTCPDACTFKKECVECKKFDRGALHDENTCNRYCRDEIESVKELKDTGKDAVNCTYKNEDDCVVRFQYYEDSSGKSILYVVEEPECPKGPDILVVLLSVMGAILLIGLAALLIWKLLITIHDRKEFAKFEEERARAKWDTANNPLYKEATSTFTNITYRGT
Sequence of Integrin alpha-IIb/beta-3 (P08514 32-887 limits assumed): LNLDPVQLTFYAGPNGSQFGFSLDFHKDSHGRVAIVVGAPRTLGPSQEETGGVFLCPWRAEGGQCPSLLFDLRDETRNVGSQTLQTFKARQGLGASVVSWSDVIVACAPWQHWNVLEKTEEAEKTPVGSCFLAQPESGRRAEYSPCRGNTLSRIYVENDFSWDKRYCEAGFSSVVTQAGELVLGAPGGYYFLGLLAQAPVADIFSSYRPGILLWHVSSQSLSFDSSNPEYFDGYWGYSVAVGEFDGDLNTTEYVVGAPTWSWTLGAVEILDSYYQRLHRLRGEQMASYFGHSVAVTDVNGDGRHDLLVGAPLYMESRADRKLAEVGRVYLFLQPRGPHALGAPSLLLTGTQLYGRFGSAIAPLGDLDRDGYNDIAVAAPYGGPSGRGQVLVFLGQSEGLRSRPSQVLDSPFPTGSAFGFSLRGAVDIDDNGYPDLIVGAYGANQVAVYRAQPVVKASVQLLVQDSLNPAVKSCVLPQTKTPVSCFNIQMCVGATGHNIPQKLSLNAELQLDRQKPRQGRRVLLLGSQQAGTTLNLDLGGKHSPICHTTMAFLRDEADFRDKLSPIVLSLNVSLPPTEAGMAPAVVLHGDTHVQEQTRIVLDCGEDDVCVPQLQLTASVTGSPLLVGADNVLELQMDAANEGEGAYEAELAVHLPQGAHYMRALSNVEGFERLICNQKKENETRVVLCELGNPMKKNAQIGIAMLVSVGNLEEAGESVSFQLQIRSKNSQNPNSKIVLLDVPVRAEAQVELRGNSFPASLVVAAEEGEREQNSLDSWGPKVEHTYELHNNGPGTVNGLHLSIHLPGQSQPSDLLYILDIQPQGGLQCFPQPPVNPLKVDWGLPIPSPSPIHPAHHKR
Sequence of Integrin alpha-IIb/beta-3 (P08514 891-1039 limits assumed): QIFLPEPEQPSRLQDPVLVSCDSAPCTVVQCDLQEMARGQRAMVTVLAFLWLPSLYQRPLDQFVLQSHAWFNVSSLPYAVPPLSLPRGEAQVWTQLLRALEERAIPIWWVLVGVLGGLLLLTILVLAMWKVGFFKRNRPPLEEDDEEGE

CC(C)[C@H](NC(=O)[C@H](CC(=O)O)NC(=O)C[C@H]1CCCN1C(=O)/C=C/c1ccc(NC(=N)N)cc1)C(=O)O was tested. Which IC50 did it give?
The IC50 was 26000 nM.

With CC(C)[C@H](NC(=O)[C@H](CC(=O)O)NC(=O)C[C@@H]1CCCCN1C(=O)/C=C/c1ccc(NC(=N)N)cc1)C(=O)O as the molecule, how does the IC50 read?
Its IC50 is 200 nM.

CC(C)[C@H](NC(=O)[C@H](CC(=O)O)NC(=O)CCN(C)C(=O)/C=C/c1ccc(NC(=N)N)cc1)C(=O)O was tested. Which IC50 did it give?
The IC50 was 200 nM.

Which IC50 does the source give for CC(C)[C@H](NC(=O)[C@H](CC(=O)O)NC(=O)[C@H]1CCN(C(=O)/C=C/c2ccc(NC(=N)N)cc2)C1)C(=O)O here?
Its IC50 is 3000 nM.

How did the IC50 turn out when CC(C)[C@H](NC(=O)[C@H](CC(=O)O)NC(=O)[C@@H]1CCCN(C(=O)/C=C/c2ccc(NC(=N)N)cc2)C1)C(=O)O was run?
Its IC50 is 70 nM.

Which IC50 does the source give for CC(C)[C@H](NC(=O)[C@H](CC(=O)O)NC(=O)C[C@@H]1CCCN1C(=O)/C=C/c1ccc(NC(=N)N)cc1)C(=O)O here?
The IC50 was 1500 nM.

CC(C)[C@H](NC(=O)[C@H](CC(=O)O)NC(=O)CCCNC(=O)/C=C/c1ccc(NC(=N)N)cc1)C(=O)O was tested. Which IC50 did it give?
Its IC50 is 70000 nM.

How did the IC50 turn out when CC(C)[C@H](NC(=O)[C@H](CC(=O)O)NC(=O)CCNC(=O)/C=C/c1ccc(NC(=N)N)cc1)C(=O)O was run?
Its IC50 is 240 nM.

How did the IC50 turn out when CC(C)[C@H](NC(=O)[C@H](CC(=O)O)NC(=O)C[C@H]1CCN1C(=O)/C=C/c1ccc(NC(=N)N)cc1)C(=O)O was run?
Its IC50 is 110 nM.

For CC(C)[C@H](NC(=O)[C@H](CC(=O)O)NC(=O)C[C@H]1CCCCN1C(=O)/C=C/c1ccc(NC(=N)N)cc1)C(=O)O, which IC50 is on record?
Its IC50 is > 20000 nM.

For CCN(CCC(=O)N[C@@H](CC(=O)O)C(=O)N[C@H](C(=O)O)C(C)C)C(=O)/C=C/c1ccc(NC(=N)N)cc1, which IC50 is on record?
The IC50 was 220 nM.

For CC(C)[C@H](NC(=O)[C@H](CC(=O)O)NC(=O)[C@H]1CCCN(C(=O)/C=C/c2ccc(NC(=N)N)cc2)C1)C(=O)O, which IC50 is on record?
Its IC50 is 120 nM.

How did the IC50 turn out when CC(C)[C@H](NC(=O)[C@H](CC(=O)O)NC(=O)C1CN(C(=O)/C=C/c2ccc(NC(=N)N)cc2)C1)C(=O)O was run?
The IC50 was > 20000 nM.

How did the IC50 turn out when CC(C)[C@H](NC(=O)[C@H](CC(=O)O)NC(=O)CNC(=O)/C=C/c1ccc(NC(=N)N)cc1)C(=O)O was run?
The IC50 was 5000 nM.

How did the IC50 turn out when CC(C)[C@H](NC(=O)[C@H](CC(=O)O)NC(=O)[C@@H]1CCN(C(=O)/C=C/c2ccc(NC(=N)N)cc2)C1)C(=O)O was run?
The IC50 was 3 nM.

For CC(C)[C@H](NC(=O)[C@H](CC(=O)O)NC(=O)CNC(=O)[C@@H](N)CCCN=C(N)N)C(=O)O (H-RGDV-OH), which IC50 is on record?
Its IC50 is 6000 nM.
